From patent US5648354A, “1,2-dithiins having antifungal activity” (Shaman Pharmaceuticals, Inc., priority 1995, dated 1997)
≈ marks a conversion by molar mass, not a printed value.

Columns and labels:
Assay in all cases: In vitro antifungal activity (minimum inhibitory concentration)
Type in all cases: cell-based
[1] = tested on: Cryptococcus neoformans ATCC36556; details: read-out: Minimum Inhibitory Concentration (MIC) CN
Description: (§1) The antifungal activities of representative 1,2-dithiin compounds listed below were determined in vitro using three fungal cultures: Candida albicans ATCC10259 (CA), Cryptococcus neoformans ATCC36556 (CN), and Aspergillus fumigatus ATCC13073 (AF).
(§2) The method used to determine in vitro antifungal activity is discussed in McGinnis, M. R., Laboratory Handbook of Medical Mycology, Academic Press, New York, London, p 661 (1980); and Drouget, E.; Dupont, B.; Improvist, L.; Vivian, M. A.; and Tortorano, A. M.; "Disc Agar Diffusion and Microplate Automatized Techniques for In Vitro Evaluation of Antifungal Agents on Yeast and Sporulated Pathogenic Fungi" in In Vitro and In Vivo Evaluation of Antifungal Agents, Eds. lwata, K. and Vanden Bossche, H., Elsevier Science Publishers, New York, Oxford, p. 303 (1986).

[2] = tested on: Candida albicans ATCC10259; details: read-out: Minimum Inhibitory Concentration (MIC) CA
Description: as §1, §2

[3] = tested on: Aspergillus fumigatus ATCC13073; details: read-out: Minimum Inhibitory Concentration (MIC) AF
Description: as §1, §2

| Structure (SMILES) | MIC [1] [µg/mL] | MIC [2] [µg/mL] | MIC [3] [µg/mL] |
| --- | --- | --- | --- |
| CC1(C)OCC(COCC2=CC=C(COCC3COC(C)(C)O3)SS2)O1 (stereo not drawn) [3,6-Bis[[(2,2-dimethyl-1,3-dioxolan-4-yl)methyloxy]methyl]-1,2-dithiin] | > 100 | > 100 | > 100 |
| OCC1=CC=C(COc2ccccc2F)SS1 [3-(Hydroxymethyl)-6-[(2-fluorophenyloxy)methyl]-1,2-dithiin] | 1.6 (≈ 5.92 µM) | 3.1 (≈ 11.5 µM) | 3.1 (≈ 11.5 µM) |
| C#Cc1cccc(OCC2=CC=C(CO)SS2)c1 [3-(Hydroxymethyl)-6-[(3-ethynylphenyloxy)methyl]-1,2-dithiin] | 1.6 (≈ 5.79 µM) | 1.6 (≈ 5.79 µM) | 6.3 (≈ 22.8 µM) |
| OCC1=CC=C(COc2ccc(O)nn2)SS1 [3-(Hydroxymethyl)-6-[(3-hydroxypyridazine-6-oxy)methyl]-1,2-dithiin] | > 100 | > 100 | > 100 |
| O=c1ccc([N+](=O)[O-])cn1CC1=CC=C(CO)SS1 [3-(Hydroxymethyl)-6-[(5-nitropyrid-2-one-1-yl)methyl]-1,2-dithiin] | 100 (≈ 335 µM) | > 100 | > 100 |
| CN(C)c1cccc(OCC2=CC=C(CO)SS2)c1 [3-(Hydroxymethyl)-6-[[3-(N,N-dimethylamino)phenyloxy]methyl]-1,2-dithiin] | 50 (≈ 169 µM) | > 50 | 100 (≈ 338 µM) |
| CC1(C)OCC(COCC2=CC=C(CO)SS2)O1 (stereo not drawn) [3-(Hydroxymethyl)-6-[[(2,2-dimethyl-1,3-dioxolan-4-yl)methyloxy]methyl]-1,2-dithiin] | > 100 | > 100 | > 100 |
| OCC1=CC=C(COCC(O)CO)SS1 (stereo not drawn) [3-(Hydroxymethyl)-6-[methyloxy(2,3-dihydroxypropane-1-yl)]-1,2-dithiin] | > 100 | > 100 | > 100 |
| O=[N+]([O-])c1ccc(OCC2=CC=C(CO)SS2)nc1 [3-(hydroxymethyl)-6-[(5-nitropyridyl-2-oxy)methyl]-1,2-dithiin] | 0.1 (≈ 0.335 µM) | 0.2 (≈ 0.67 µM) | 0.4 (≈ 1.34 µM) |
| OCC1=CC=C(COc2ccc(-n3ccnc3)cc2)SS1 [3-(hydroxymethyl)-6-[[4-(imidazol-1-yl)phenyloxy]methyl]-1,2-dithiin] | 100 (≈ 314 µM) | 12.5 (≈ 39.3 µM) | 100 (≈ 314 µM) |
| CC1(C)OCC(COCC2=CC=C(COCC(O)CO)SS2)O1 (stereo not drawn) [3-[[(2,2-Dimethyl-1,3-dioxolan-4-yl)methyloxy]methyl]-6-[methyloxy(2,3-dihydroxypropane-1-yl)]-1,2-dithiin] | > 100 | > 100 | > 100 |

Continued, values first:

| MIC [1] [µg/mL] | MIC [2] [µg/mL] | MIC [3] [µg/mL] | Structure (SMILES) |
| --- | --- | --- | --- |
| 3.1 (≈ 11.1 µM) | 6.3 (≈ 22.5 µM) | 3.1 (≈ 11.1 µM) | O=C(OCC1=CC=C(CO)SS1)c1ccccc1 [3-(Benzoyloxymethyl)-6-(hydroxymethyl)-1,2-dithiin] |
| 1.6 (≈ 4.51 µM) | 1.6 (≈ 4.51 µM) | 6.3 (≈ 17.8 µM) | OCC1=CC=C(COc2cc(C(F)(F)F)ccc2Cl)SS1 [3-(Hydroxymethyl)-6-[(2-chloro-5-trifluoromethyl-phenyloxy)methyl]-1,2-dithiin] |
| 6.3 (≈ 19.7 µM) | 25 (≈ 78 µM) | 50 (≈ 156 µM) | OCC1=CC=C(COc2ccccc2C(F)(F)F)SS1 [3-(Hydroxymethyl)-6-[(2-trifluoromethylphenyloxy)methyl]-1,2-dithiin] |
| 100 (≈ 373 µM) | 50 (≈ 186 µM) | > 100 | OCC1=CC=C(COc2cccc(O)c2)SS1 [3-(Hydroxymethyl)-6-[(3-hydroxyphenyloxy)methyl]-1,2-dithiin] |
| > 100 | > 100 | > 100 | O=c1ccc(O)nn1CC1=CC=C(CO)SS1 [3-(Hydroxymethyl)-6-[(3-hydroxypyridazin-6-one-1-yl)methyl]-1,2-dithiin] |
| 12.5 (≈ 49.5 µM) | 25 (≈ 99.1 µM) | 25 (≈ 99.1 µM) | OCC1=CC=C(COc2ccccc2)SS1 [3-(Hydroxymethyl)-6-[(phenyloxy)methyl]-1,2-dithiin] |
| 12.5 (≈ 49.3 µM) | > 100 | > 100 | O=c1ccccn1CC1=CC=C(CO)SS1 [3-(Hydroxymethyl)-6-[(pyrid-2-one-1-yl)methyl]-1,2-dithiin] |
| 3.1 (≈ 12.2 µM) | 3.1 (≈ 12.2 µM) | 3.1 (≈ 12.2 µM) | OCC1=CC=C(COc2ccccn2)SS1 [3-(Hydroxymethyl)-6-[(pyridyl-2-oxy)methyl]-1,2-dithiin] |
| 1.6 (≈ 6.32 µM) | 3.1 (≈ 12.2 µM) | 3.1 (≈ 12.2 µM) | OCC1=CC=C(COc2cccnc2)SS1 [3-(Hydroxymethyl)-6-[(pyridyl-3-oxy)methyl]-1,2-dithiin] |
| 25 (≈ 78 µM) | 50 (≈ 156 µM) | 100 (≈ 312 µM) | OCC1=CC=C(COc2nc3ccccc3nc2O)SS1 [3-(Hydroxymethyl)-6-[methyloxy[3-hydroxyquinoxalin-2-yl]]-1,2-dithiin] |
| 6.3 (≈ 20.3 µM) | 6.3 (≈ 20.3 µM) | 12.5 (≈ 40.3 µM) | COC(=O)c1ccccc1OCC1=CC=C(CO)SS1 [3-(Hydroxymethyl)-6-[methyloxy[methyl benzoate-2-yl]]-1,2-dithiin] |
| 6.3 (≈ 20.3 µM) | 3.1 (≈ 9.99 µM) | 25 (≈ 80.5 µM) | COC(=O)c1cccc(OCC2=CC=C(CO)SS2)c1 [3-(Hydroxymethyl)-6-[methyloxy[methyl benzoate-3-yl]]-1,2-dithiin] |
| 6.3 (≈ 17.9 µM) | 25 (≈ 70.9 µM) | 12.5 (≈ 35.5 µM) | OCC1=CC=C(CSc2nnnn2-c2ccc(O)cc2)SS1 [3-(Hydroxymethyl)-6-[methylthio-[1-(4-hydroxyphenyl)tetrazol-5-yl]]-1,2-dithiin] |
| 3.1 (≈ 9.99 µM) | 3.1 (≈ 9.99 µM) | 12.5 (≈ 40.3 µM) | COC(=O)c1ccc(OCC2=CC=C(CO)SS2)cc1 [3-(hydroxymethyl)-6-[methyloxy[methyl benzoate-4-yl]]-1,2-dithiin] |
